In general, EC50 refers to the concentration at which the effect is half-maximal. Broadly, the ED50 is the dose that gives a 50% effect, or the effect in half of the subjects.

Activity calls are given as the source filed them. The calls are words filed in the database; no cut-off is given here. Bounds are passed on as bounds.

Test [1] in a line: Displacement of 3.0 nM [3H]etorphine from opioid receptor in rat cerebrum.
Test [2] relates to Mus musculus. The test is described as follows: Antinociceptive activity in sc dosed mouse by tail flick method. In kind it is functional. A general note: Hot-plate and tail-flick tests time the reaction to a heat stimulus.
In test [3] the test system is Mus musculus. Nature of the test: Antinociceptive activity in sc dosed mouse by hot plate method. In kind it is functional.
For test [4], the system named is Mus musculus. Nature of the test: Antinociceptive activity in sc dosed mouse by phenylquinone antiwrithing assay. In kind it is functional. (In general: An intraperitoneal irritant provokes the stretching counted in writhing tests.)
For test [5], the system named is Mus musculus. Nature of the test: Antinociceptive activity in sc dosed mouse assessed as inhibition of morphin response by tail flick assay. In kind it is functional.
Test [6] can be described thus: Displacement of [3H]etorphine from opioid receptor in rat cerebrum. (In general: Loss of bound radioactivity is the signal in a displacement assay; it reports binding, not function.)
The next test concerns the target Mu-type opioid receptor (Mus musculus, UniProt P42866). Nature of the test: Agonist activity at mu opioid receptor in Swiss mouse vas deferens assessed as inhibition of electrically-stimulated twitch. In kind it is functional, tissue-based.

Chain of Mu-type opioid receptor (P42866 whole entry): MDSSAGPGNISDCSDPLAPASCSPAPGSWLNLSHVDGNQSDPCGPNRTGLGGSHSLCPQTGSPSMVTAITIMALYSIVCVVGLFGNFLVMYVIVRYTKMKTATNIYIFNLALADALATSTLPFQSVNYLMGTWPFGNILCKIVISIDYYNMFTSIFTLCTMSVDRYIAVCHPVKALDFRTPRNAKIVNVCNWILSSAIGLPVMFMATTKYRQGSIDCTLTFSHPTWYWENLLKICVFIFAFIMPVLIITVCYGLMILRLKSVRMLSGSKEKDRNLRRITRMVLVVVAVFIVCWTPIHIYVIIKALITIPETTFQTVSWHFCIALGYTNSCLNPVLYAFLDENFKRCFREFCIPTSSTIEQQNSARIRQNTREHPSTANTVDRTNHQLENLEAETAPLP

`COc1ccc2c3c1O[C@H]1[C@@H](O)C=C[C@H]4[C@@H](C2)N(C)CC[C@@]341` [CODEINE] gave an EC50 in test [1] of 34700 nM.
For `C[C@H]1C2Cc3ccc(O)cc3[C@@]1(C)CCN2CCC(=O)O`, the outcome with Mus musculus [2], with Mus musculus [3] and with Mus musculus [5] was inactive. This compound showed an ED50 in the test with Mus musculus [4] of 11.4 mg/kg. In test [6], this compound registered an EC50 above 6000 nM.
As to `O=C1CC[C@@]2(O)[C@H]3Cc4ccc(O)c5c4[C@@]2(CCN3CC2CC2)[C@H]1O5` [NALTREXONE], the result with Mus musculus [2], with Mus musculus [3] and in the test on Mus musculus [4] was inactive. For the same compound, the EC50 in test [1] was 2 nM; in test [6], 0.63 nM. In addition, the ED50 in the test with Mus musculus [5] worked out at 0.007 mg/kg.
Consider `C[C@H]1[C@@H]2Cc3ccc(O)cc3[C@]1(C)CCN2C` [METAZOCINE], for which the ED50 is 0.81 mg/kg in the test on Mus musculus [2], 0.62 mg/kg in the test with Mus musculus [3] and 0.3 mg/kg in the test with Mus musculus [4]. Besides, in the test with Mus musculus [5], the outcome was inactive.
As for `CN1CC[C@]23c4c5ccc(O)c4O[C@H]2[C@@H](O)C=C[C@H]3[C@H]1C5` [MORPHINE], the ED50 with Mus musculus [5] is 2.6 mg/kg.
Take `CCOC(=O)CCN1CC[C@]2(C)c3cc(O)ccc3CC1[C@@H]2C`: the result in the test on Mus musculus [2], in the test with Mus musculus [3], in the test with Mus musculus [4] and in the test with Mus musculus [5] was inactive.
Consider `C=CCN1CC[C@]23c4c5ccc(O)c4O[C@H]2[C@@H](O)C=C[C@H]3[C@H]1C5` [NALORPHINE], for which, in the test on Mus musculus [2], the outcome was inactive. In addition, the 50% effective dose (ED50) was 0.6 mg/kg with Mus musculus [4] and 2.6 mg/kg in the test with Mus musculus [5]. In test [6], this compound displayed an EC50 of 20 nM.
For `C=CCN1CC[C@]23c4c5ccc(O)c4O[C@H]2C(=O)CC[C@@]3(O)[C@H]1C5` [NALOXONE], the result in the test on Mus musculus [2], with Mus musculus [3] and in the test on Mus musculus [4] was inactive. The EC50 in test [1] stood at 9.1 nM; in test [6], 6.26 nM. For the same compound, the median effective dose (ED50) in the test with Mus musculus [5] was 0.03 mg/kg.
Take `C[C@H]1C2Cc3ccc(O)cc3[C@@]1(C)CCN2CCCC(=O)O`: the result in the test with Mus musculus [2], with Mus musculus [3] and in the test on Mus musculus [5] was inactive. The same compound came in with an ED50 in the test with Mus musculus [4] of 1.4 mg/kg. The compound also came in with a concentration giving a half-maximal response (EC50) in test [6] above 6000 nM.
Consider `C[C@H]1C2Cc3ccc(O)cc3[C@@]1(C)CCN2CC(=O)O`, for which the outcome with Mus musculus [2], with Mus musculus [3], with Mus musculus [4] and in the test on Mus musculus [5] was inactive. Also, the concentration for a half-maximal effect (EC50) on Mu-type opioid receptor is 9790 nM; in test [6], above 6000 nM.
Take `CCOC(=O)CN1CC[C@]2(C)c3cc(O)ccc3CC1[C@@H]2C`: the result in the test with Mus musculus [2], in the test on Mus musculus [3], in the test on Mus musculus [4] and with Mus musculus [5] was inactive. Also, the EC50 in test [6] amounted to 2080 nM.
Consider `CCOC(=O)CCCN1CC[C@]2(C)c3cc(O)ccc3CC1[C@@H]2C`, for which the result in the test with Mus musculus [2], in the test on Mus musculus [3] and with Mus musculus [5] was inactive. Further, the figures for the EC50 (at Mu-type opioid receptor; in test [6]) were 17900 nM and 1020 nM, respectively. The ED50 in the test on Mus musculus [4] worked out at 7.1 mg/kg.

The record behind these values is ChEMBL document CHEMBL1143143, “The influence of esters and carboxylic acids as the N-substituent of opioids. Part 1: Benzomorphans” (Bioorg Med Chem, 2008).
